Reference: paper PMC9930781, “Design, synthesis, docking, and anticancer evaluations of new thiazolo[3,2-a] pyrimidines as topoisomerase II inhibitors” (Journal of Enzyme Inhibition and Medicinal Chemistry, 2023)
Where two headings read alike, the source gives them in different places.

What was measured:
[1] = tested on: A549 non-small cell lung cancer (NSCLC) cell line; assay: MTT cytotoxicity assay, A549; conditions: Homo sapiens, A549, 24 h
Method: (§1) The MTT test was used to evaluate the inhibitory effects of the substances on cell proliferation in the aforementioned cell lines. This colorimetric assay targets the mitochondrial succinate dehydrogenase of living cells to change yellow tetrazolium bromide (MTT) to a purple formazan derivative. […] Then, the cells were incubated for 24 h and exposed to various chemical concentrations. 20 μL of a 5 mg/mL MTT solution was applied after a 24-h drug treatment period and incubated for 4 h. To dissolve the produced purple formazan, each well receives 100 μL of dimethyl sulfoxide (DMSO). […] The formula for calculating the relative percentage of cell viability was (A570 of treated samples/A570 of the untreated sample) × 100.

[2] = tested on: A498 renal cell carcinoma cell line; assay: MTT cytotoxicity assay, A498; conditions: Homo sapiens, A498, 24 h
Method: as §1

human topoisomerase II = human topoisomerase II (Homo sapiens, UniProt P11388); assay: DNA Topo II inhibition (kDNA decatenation) assay; type: biochemical; conditions: for IC50: kDNA decatenation, four concentrations 0.1-100 µM, mean ± SD of two independent assays
Method: The ATP-dependent decatenation of kinetoplast DNA (kDNA) obtained from Crithidia fasciculata, which consists of a network of numerous minicircles (2.3 Kb) and some maxicircles, was used to measure topoisomerase II inhibition. Reactions took place in 20 μL and comprised topoisomerase II, 200–300 ng of kDNA, and 120 mM KCl with 50 mM Tris-HCl, pH 8, 10 mM MgCl2, 0.5 mM ATP, and 0.5 mM dithiothreitol. In preliminary tests, the quantity of topoisomerase II (5 units) was changed to decatenate almost 100% of the kDNA under these assay circumstances. […] The products in the reaction mixture were separated by a 1% agarose gel after the reaction was complete and then could be seen after being stained with ethidium bromide (0.2 μg/mL). The gels were run at 100 V for about 40 min and visualised under UV transillumination.
This assay is based on the fact that human Topo II can decatenate interlinked double-stranded DNA molecules.

[3] = tested on: MCF7 breast cancer cell line; assay: MTT cytotoxicity assay, MCF7; conditions: MCF7, MTT
Method: as §1
The newly prepared compounds were screened against three cancer cell lines: namely, breast cancer cell line MCF7, non-small cell lung cancer (NSCLC) cell line A549, and renal cancer cell line A498, using the MTT colorimetric assay.

[4] = read-out: Cytotoxicity IC50 A549± SD, MTT, A549, 24 h treatment, mean ± SD of two independent assays
[5] = read-out: Cytotoxicity IC50 A498± SD, MTT, A498, 24 h treatment, mean ± SD of two independent assays

human topoisomerase II, sequence (P11388 whole entry): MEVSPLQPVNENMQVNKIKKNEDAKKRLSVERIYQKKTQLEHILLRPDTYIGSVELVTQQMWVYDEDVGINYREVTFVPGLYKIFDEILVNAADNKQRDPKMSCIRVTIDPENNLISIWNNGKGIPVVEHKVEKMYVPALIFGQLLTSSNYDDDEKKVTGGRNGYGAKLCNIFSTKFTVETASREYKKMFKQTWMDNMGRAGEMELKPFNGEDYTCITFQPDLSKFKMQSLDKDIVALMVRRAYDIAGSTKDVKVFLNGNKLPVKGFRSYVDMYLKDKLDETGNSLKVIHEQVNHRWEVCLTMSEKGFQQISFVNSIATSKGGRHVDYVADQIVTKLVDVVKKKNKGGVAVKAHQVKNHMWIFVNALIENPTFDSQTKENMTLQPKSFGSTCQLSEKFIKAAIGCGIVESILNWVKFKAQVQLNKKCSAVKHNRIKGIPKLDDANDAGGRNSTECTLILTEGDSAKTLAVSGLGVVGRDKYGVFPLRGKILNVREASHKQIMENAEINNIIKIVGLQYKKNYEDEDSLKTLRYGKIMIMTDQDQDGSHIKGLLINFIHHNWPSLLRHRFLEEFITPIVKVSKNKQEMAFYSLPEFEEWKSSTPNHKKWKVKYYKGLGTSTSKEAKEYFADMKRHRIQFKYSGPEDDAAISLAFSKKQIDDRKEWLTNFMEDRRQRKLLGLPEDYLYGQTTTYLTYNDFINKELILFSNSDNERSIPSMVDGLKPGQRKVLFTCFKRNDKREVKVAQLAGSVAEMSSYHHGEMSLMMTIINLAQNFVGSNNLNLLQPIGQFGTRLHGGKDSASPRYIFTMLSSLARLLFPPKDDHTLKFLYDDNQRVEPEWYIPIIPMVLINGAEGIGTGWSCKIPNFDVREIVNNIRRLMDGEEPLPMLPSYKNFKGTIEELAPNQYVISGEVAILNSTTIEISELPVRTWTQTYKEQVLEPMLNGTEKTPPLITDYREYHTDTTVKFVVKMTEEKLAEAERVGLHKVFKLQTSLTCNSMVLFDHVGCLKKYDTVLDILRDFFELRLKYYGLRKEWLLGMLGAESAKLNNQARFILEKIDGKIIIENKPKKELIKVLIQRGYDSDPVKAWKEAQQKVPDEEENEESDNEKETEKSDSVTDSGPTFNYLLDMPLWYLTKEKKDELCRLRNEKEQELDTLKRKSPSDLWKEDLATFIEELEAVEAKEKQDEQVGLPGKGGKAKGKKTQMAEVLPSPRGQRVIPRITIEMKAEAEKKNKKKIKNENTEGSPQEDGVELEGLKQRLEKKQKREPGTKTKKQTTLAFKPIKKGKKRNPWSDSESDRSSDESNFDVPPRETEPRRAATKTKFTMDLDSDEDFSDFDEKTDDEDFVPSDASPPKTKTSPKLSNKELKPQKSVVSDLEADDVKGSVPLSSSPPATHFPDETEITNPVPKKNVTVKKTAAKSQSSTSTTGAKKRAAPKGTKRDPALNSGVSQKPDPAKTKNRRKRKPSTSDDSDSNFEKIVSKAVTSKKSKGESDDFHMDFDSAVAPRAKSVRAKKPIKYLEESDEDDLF

melting point [°C] | %inh TOPO II (human topoisomerase II; conc 0.1 (μM)) [%] | %inh TOPO II (human topoisomerase II; conc 1 (μM)) [%] | %inh TOPO II (human topoisomerase II; conc 10 (μM)) [%] | %inh TOPO II (human topoisomerase II; conc 100 (μM)) [%] | IC50 (human topoisomerase II) [µM] | Molecule | IC50 [1, 4] [µM] | IC50 [2, 5] [µM] | also measured
172 to 174 | – | – | – | – | – | CCOC(=O)C1=C(C)N=C2SC=C(N)N2C1c1ccc(OC)cc1OC (stereo not shown) [Compound 2, ethyl 3-amino-5–(2,4-dimethoxyphenyl)-7-methyl-5H-thiazolo[3,2-a] pyrimidine-6-carboxylate] | 0.023 | 0.332 | –
195 to 197 | – | – | – | – | – | CCOC(=O)C1=C(C)N=C2SCC(=O)N2C1c1ccc(OC)cc1OC (stereo not shown) [Compound 3a, Ethyl 5–(2,4-dimethoxyphenyl)-7-methyl-3-oxo-3,5-dihydro-5H-thiazolo[3,2-a] pyrimidine-6-carboxylate] | 0.093 | 0.073 | –
175 to 177 | 19 | 30 | 48 | 80 | 6.14 ± 0.36 | CCOC(=O)C1=C(C)N=c2sc(=Cc3ccc(OC)cc3)c(=O)n2C1c1ccc(OC)cc1OC (stereo not shown) [Compound 3b, Ethyl 5–(2,4-dimethoxyphenyl)-2–(4-methoxybenzylidene)-7-methyl-3-oxo-2,3-dihydro-5H-thiazolo[3,2-a]pyrimidine-6-carboxylate] | 0.024 | 0.046 | –
– | 31 | 45 | 63 | 89 | 1.39 ± 0.08 | CCOC(=O)C1=C(C)N=c2sc(=Cc3ccc(OC)cc3OC)c(=O)n2C1c1ccc(OC)cc1OC (stereo not shown) [Compound 3c, Ethyl 2–(2,4-dimethoxybenzylidene)-5–(2,4-dimethoxyphenyl)-7-methyl-3-oxo-2,3-dihydro-5H-thiazolo[3,2-a]pyrimidine-6-carboxylate] | 0.019 | 0.009 | –
190 to 192 | 28 | 41 | 59 | 85 | 2.21 ± 0.13 | CCOC(=O)C1=C(C)N=c2sc(=Cc3cc(OC)c(OC)c(OC)c3)c(=O)n2C1c1ccc(OC)cc1OC (stereo not shown) [Compound 3d, Ethyl 5–(2,4-dimethoxyphenyl)-7-methyl-3-oxo-2–(3,4,5-trimethoxybenzylidene)-2,3-dihydro-5H-thiazolo[3,2-a]pyrimidine-6-carboxylate] | 0.012 | 0.004 | –
150 to 152 | – | – | – | – | – | CCOC(=O)C1=C(C)N=C2SC=C(NC(=O)c3ccc(Cl)cc3)N2C1c1ccc(OC)cc1OC (stereo not shown) [Compound 4a, Ethyl 3–(4-chlorobenzamido)-5–(2,4-dimethoxyphenyl)-7-methyl-5H-thiazolo[3,2-a]pyrimidine-6-carboxylate] | – | – | –
150 to 152 | – | – | – | – | – | CCOC(=O)C1=C(C)N=C2SC=C(NC(=O)CCl)N2C1c1ccc(OC)cc1OC (stereo not shown) [Compound 5, ethyl 3–(2-chloroacetamido)-5–(2,4-dimethoxyphenyl)-7-methyl-5H-thiazolo[3,2-a]pyrimidine-6-carboxylate] | – | – | –
– | 26 | 42 | 67 | 83 | 1.88 ± 0.11 | CCOC(=O)C1=C(C)N=C2SC=C(NC(=O)CN3CCN(CC)CC3)N2C1c1ccc(OC)cc1OC (stereo not shown) [Compound 6a] | 0.008 | 0.002 | –
– | 28 | 44 | 67 | 88 | 1.51 ± 0.09 | CCOC(=O)C1=C(C)N=C2SC=C(NC(=O)CN3CCOCC3)N2C1c1ccc(OC)cc1OC (stereo not shown) [Compound 6b] | 0.006 | 0.01 | –
– | 20 | 34 | 57 | 84 | 3.56 ± 0.21 | CCOC(=O)C1=C(C)N=C2SC=C(NC(=O)Nc3ccc(Cl)cc3)N2C1c1ccc(OC)cc1OC (stereo not shown) [Compound 7a, Ethyl 3–(3-(4-chlorophenyl)ureido)-5–(2,4-dimethoxyphenyl)-7-methyl-5H-thiazolo[3,2-a]pyrimidine-6-carboxylate] | – | – | –
– | 28 | 52 | 71 | 88 | 1.05 ± 0.06 | CCOC(=O)C1=C(C)N=C2SC=C(NC(=O)Nc3ccc(Cl)c(C(F)(F)F)c3)N2C1c1ccc(OC)cc1OC (stereo not shown) [Compound 7b, Ethyl 3–(3-(4-chloro-3-(trifluoromethyl)phenyl)ureido)-5–(2,4-dimethoxyphenyl)-7-methyl-5H-thiazolo[3,2-a]pyrimidine-6-carboxylate] | 0.019 | 0.009 | –
– | – | – | – | – | – | Ethyl 5–(2,4-dimethoxyphenyl)-7-methyl-3-((2-oxo-2-(piperazin-1-yl)ethyl)amino)-5H-thiazolo[3,2-a]pyrimidine-6-carboxylate [Compound 6c] | – | – | % viability ([3]; 0.4ug): 77.067%; % viability ([3]; 1.6ug): 70.045%; % viability ([3]; 6.3ug): 60.702%; % viability ([3]; 25ug): 51.13%; % viability ([3]; 100ug): 43.771%
– | – | – | – | – | – | ethyl 4–(2,4-dimethoxyphenyl)-6-methyl-2-thioxo-1,2,3,6-tetrahydropyrimidine-5-carboxylate [Compound 1] | – | – | % viability ([3]; 0.4ug): 81.002%; % viability ([3]; 1.6ug): 67.624%; % viability ([3]; 6.3ug): 61.271%; % viability ([3]; 25ug): 51.07%; % viability ([3]; 100ug): 44.533%

Molecule | melting point [°C] | %inh TOPO II (human topoisomerase II; conc 0.1 (μM)) [%] | %inh TOPO II (human topoisomerase II; conc 1 (μM)) [%] | %inh TOPO II (human topoisomerase II; conc 10 (μM)) [%] | %inh TOPO II (human topoisomerase II; conc 100 (μM)) [%] | IC50 (human topoisomerase II) [µM] | IC50 [1, 4] [µM] | IC50 [2, 5] [µM] | also measured
COc1cccc2c1C(=O)c1c(O)c3c(c(O)c1C2=O)C[C@@](O)(C(=O)CO)C[C@@H]3O[C@H]1C[C@H](N)[C@H](O)[C@H](C)O1 [Doxorubicin, reference compound] | – | 30 | 51 | 77 | 90 | – | – | – | IC50 ([1]; read-out: Cytotoxicity IC50 A549± SD): 0.013 µM; IC50 ([2]; read-out: Cytotoxicity IC50 A498± SD): 0.007 µM
